Measurements from US9422297B2, “Tricyclic compounds having cytostatic and/or cytotoxic activity and methods of use thereof” (Duquesne University of the Holy Ghost, priority 2007, dated 2016).

How the values were obtained:
Assay type in all cases: cell-based
[1] = system: K-562; assay: NCI In-Vitro Testing, Leukemia
[2] = system: RPMI-8226; assay: NCI In-Vitro Testing, Leukemia
[3] = system: SR; assay: NCI In-Vitro Testing, Leukemia
[4] = system: HOP-52; assay: NCI In-Vitro Testing, Non-Small Cell Lung Cancer
[5] = system: NCI-H522; assay: NCI In-Vitro Testing, Non-Small Cell Lung Cancer
[6] = system: SK-MEL-23; assay: NCI In-Vitro Testing, Melanoma

Nc1nc2c(c(Nc3ccc(Cl)cc3)n1)-c1ccccc1C2 [AAG145-136]
GI50 [1]: 3.56E−7 Molar
LC50 [1]: >1.00E−4 Molar
TGI [1]: >1.00E−4 Molar
Percent Growth ([1]; Log10 Concentration −4.0 Molar): 26%
Percent Growth ([1]; Log10 Concentration −5.0 Molar): 16%
Percent Growth ([1]; Log10 Concentration −6.0 Molar): 20%
Percent Growth ([1]; Log10 Concentration −7.0 Molar): 89%
Percent Growth ([1]; Log10 Concentration −8.0 Molar): 103%
GI50 [2]: 4.89E−7 Molar
LC50 [2]: >1.00E−4 Molar
TGI [2]: >1.00E−4 Molar
Percent Growth ([2]; Log10 Concentration −4.0 Molar): 7%
Percent Growth ([2]; Log10 Concentration −5.0 Molar): 11%
Percent Growth ([2]; Log10 Concentration −6.0 Molar): 32%
Percent Growth ([2]; Log10 Concentration −7.0 Molar): 89%
Percent Growth ([2]; Log10 Concentration −8.0 Molar): 96%
GI50 [3]: 4.84E−8 Molar
LC50 [3]: >1.00E−4 Molar
TGI [3]: >1.00E−4 Molar
Percent Growth ([3]; Log10 Concentration −4.0 Molar): 2%
Percent Growth ([3]; Log10 Concentration −5.0 Molar): 12%
Percent Growth ([3]; Log10 Concentration −6.0 Molar): 22%
Percent Growth ([3]; Log10 Concentration −7.0 Molar): 41%
Percent Growth ([3]; Log10 Concentration −8.0 Molar): 70%
GI50 [4]: 6.54E−7 Molar
LC50 [4]: >1.00E−4 Molar
TGI [4]: >1.00E−4 Molar
Percent Growth ([4]; Log10 Concentration −4.0 Molar): 32%
Percent Growth ([4]; Log10 Concentration −5.0 Molar): 25%
Percent Growth ([4]; Log10 Concentration −6.0 Molar): 40%
Percent Growth ([4]; Log10 Concentration −7.0 Molar): 94%
Percent Growth ([4]; Log10 Concentration −8.0 Molar): 97%
GI50 [5]: 6.22E−7 Molar
LC50 [5]: >1.00E−4 Molar
TGI [5]: 3.88E−5 Molar
Percent Growth ([5]; Log10 Concentration −4.0 Molar): −10%
Percent Growth ([5]; Log10 Concentration −5.0 Molar): 14%
Percent Growth ([5]; Log10 Concentration −6.0 Molar): 40%
Percent Growth ([5]; Log10 Concentration −7.0 Molar): 89%
Percent Growth ([5]; Log10 Concentration −8.0 Molar): 96%
GI50 [6]: 1.51E−8 Molar
LC50 [6]: >1.00E−4 Molar
TGI [6]: >1.00E−4 Molar
Percent Growth ([6]; Log10 Concentration −4.0 Molar): 41%
Percent Growth ([6]; Log10 Concentration −5.0 Molar): 32%
Percent Growth ([6]; Log10 Concentration −6.0 Molar): 54%
Percent Growth ([6]; Log10 Concentration −7.0 Molar): 97%
Percent Growth ([6]; Log10 Concentration −8.0 Molar): 105%
